According to PubChem BioAssay AID328 (DTP/NCI, 2004):
Where “and” joins values, the source holds several entries; their conditions need not be identical. Equal values may be shown once. Toxic doses and inconclusive results are not listed.

Test system: BDF1 mice, P388 leukemia ip, median survival T/C
Assay: NCI In Vivo Anticancer Drug Screen. Data for tumor model P388 Leukemia (intraperitoneal) in B6D2F1 (BDF1) mice
Conditions: endpoint: median survival time, higher = longer survival
Method in brief: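 Reported as T/C, where T is the survival measurement in dosed animals and C the same measurement in vehicle controls.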

[1] = dose: 7.5 mg/kg/injection, schedule: Q04DX003 (ip), vehicle: saline
[2] = dose: 25.0 mg/kg/injection, schedule: Q01DX009 (ip), vehicle: saline
[3] = dose: 50.0 mg/kg/injection, schedule: Q01DX009 (ip), vehicle: saline
[4] = dose: 100.0 mg/kg/injection, schedule: Q01DX009 (ip), vehicle: saline
[5] = dose: 100.0 mg/kg/injection, schedule: Q04DX003 (ip), vehicle: saline
[6] = dose: 50.0 mg/kg/injection, schedule: Q01DX009 (ip), vehicle: saline with Tween-80
[7] = dose: 100.0 mg/kg/injection, schedule: Q01DX009 (ip), vehicle: saline with Tween-80
[8] = dose: 25.0 mg/kg/injection, schedule: Q01DX009 (ip), vehicle: saline with Tween-80

`CC(=O)[O][Hg][c]1s[c]([Hg][O]C(C)=O)[c]([Hg][O]C(C)=O)[c]1[Hg][O]C(C)=O` was tested, and the T/C (dose: 1.0 mg/kg/injection, schedule: Q01DX009 (ip), vehicle: Klucel (hydroxypropylcellulose) (HPC)) was 101 % of control, the T/C (dose: 2.0 mg/kg/injection, schedule: Q01DX009 (ip), vehicle: Klucel (hydroxypropylcellulose) (HPC)) was 100 % of control and the T/C (dose: 2.6 mg/kg/injection, schedule: Q01DX009 (ip), vehicle: saline) was 118 % of control. For the same molecule, the T/C (dose: 3.8 mg/kg/injection, schedule: Q04DX003 (ip), vehicle: saline) was 95 % of control, the T/C (dose: 4.0 mg/kg/injection, schedule: Q01DX009 (ip), vehicle: Klucel (hydroxypropylcellulose) (HPC)) was 102 % of control and the T/C (dose: 4.0 mg/kg/injection, schedule: Q01DX009 (ip), vehicle: saline) was 118 % of control. The T/C (dose: 6.0 mg/kg/injection, schedule: Q01DX009 (ip), vehicle: Klucel (hydroxypropylcellulose) (HPC)) was 101 % of control, the T/C (dose: 6.0 mg/kg/injection, schedule: Q01DX009 (ip), vehicle: saline) was 118 % of control and the T/C [1] was 100 % of control. The T/C (dose: 9.0 mg/kg/injection, schedule: Q01DX009 (ip), vehicle: Klucel (hydroxypropylcellulose) (HPC)) was 103 % of control and the T/C (dose: 9.0 mg/kg/injection, schedule: Q01DX009 (ip), vehicle: saline) was 118 % of control.
With `N#CC(C#N)=Cc1ccc(Cl)c(Cl)c1` the T/C (dose: 25.0 mg/kg/injection, schedule: Q01DX009 (ip), vehicle: Klucel (hydroxypropylcellulose) (HPC)) was 115 % of control, the T/C (dose: 50.0 mg/kg/injection, schedule: Q01DX009 (ip), vehicle: Klucel (hydroxypropylcellulose) (HPC)) was 100 % of control and the T/C (dose: 50.0 mg/kg/injection, schedule: Q04DX003 (ip), vehicle: Klucel (hydroxypropylcellulose) (HPC)) was 100 % of control. For the same molecule, the T/C (dose: 100.0 mg/kg/injection, schedule: Q01DX009 (ip), vehicle: Klucel (hydroxypropylcellulose) (HPC)) was 120 % of control and the T/C (dose: 100.0 mg/kg/injection, schedule: Q04DX003 (ip), vehicle: Klucel (hydroxypropylcellulose) (HPC)) was 100 % of control.
With `CCCCCCCCCCCCCCC1C(=O)NN(c2ccccc2)C1=O` (stereo not drawn) the T/C (dose: 37.5 mg/kg/injection, schedule: Q01DX009 (ip), vehicle: saline with Tween-80) was 108 % of control, the T/C (dose: 75.0 mg/kg/injection, schedule: Q01DX009 (ip), vehicle: saline with Tween-80) was 115 % of control and the T/C (dose: 150.0 mg/kg/injection, schedule: Q01DX009 (ip), vehicle: saline with Tween-80) was 122 % of control.
In the case of `NNc1ncnc2c1ncn2C1OC(CO)C(O)C1O` (stereo not drawn), the T/C [1] is reported as 90 % of control, the T/C (dose: 12.5 mg/kg/injection, schedule: Q01DX009 (ip), vehicle: saline) is reported as 109 % of control and the T/C (dose: 15.0 mg/kg/injection, schedule: Q01DX010 (ip), vehicle: saline) is reported as 113 % of control. The T/C (dose: 15.0 mg/kg/injection, schedule: Q04DX003 (ip), vehicle: saline) was 105 % of control, the T/C [2] was 109 % of control and the T/C (dose: 30.0 mg/kg/injection, schedule: Q04DX003 (ip), vehicle: saline) was 105 % of control. For the same molecule, the T/C [3] was 113 % of control, the T/C (dose: 60.0 mg/kg/injection, schedule: Q01DX010 (ip), vehicle: saline) was 154 % of control and the T/C (dose: 60.0 mg/kg/injection, schedule: Q04DX003 (ip), vehicle: saline) was 120 % of control. The T/C (dose: 120.0 mg/kg/injection, schedule: Q04DX003 (ip), vehicle: saline) was 105 % of control.
`COC(C)C(Br)C(=O)O` (stereo not drawn) was tested, and the T/C [4] was 88 % of control, the T/C [5] was 100 % of control and the T/C (dose: 200.0 mg/kg/injection, schedule: Q01DX009 (ip), vehicle: saline) was 92 % of control. The T/C (dose: 200.0 mg/kg/injection, schedule: Q04DX003 (ip), vehicle: saline) was 91 % of control and the T/C (dose: 400.0 mg/kg/injection, schedule: Q04DX003 (ip), vehicle: saline) was 91 % of control.
In the case of `[CH3][Hg][Cl]`, the T/C (dose: 0.25 mg/kg/injection, schedule: Q01DX009 (ip), vehicle: saline) is reported as 109 % of control, the T/C (dose: 0.5 mg/kg/injection, schedule: Q01DX009 (ip), vehicle: saline) is reported as 100 % of control and the T/C (dose: 1.0 mg/kg/injection, schedule: Q01DX009 (ip), vehicle: saline) is reported as 100 % of control.
For `Cc1ccc(-c2nc3ccccc3c(=O)n2/N=C/c2ccccc2)cc1`, the T/C [6] was 90 % of control and the T/C [7] was 93 % of control.
In the case of `Cc1ccc2oc3ccccc3c(=O)c2c1`, the T/C (dose: 50.0 mg/kg/injection, schedule: Q01DX001 (ip), vehicle: saline sonified) is reported as 95 % of control, the T/C (dose: 100.0 mg/kg/injection, schedule: Q01DX001 (ip), vehicle: saline sonified) is reported as 95 % of control and the T/C (dose: 200.0 mg/kg/injection, schedule: Q01DX001 (ip), vehicle: saline sonified) is reported as 95 % of control.
With `O=C(O)c1cc(Br)ccc1OCc1ccc(Cl)cc1` the T/C (dose: 100.0 mg/kg/injection, schedule: Q04DX003 (ip), vehicle: saline with Tween-80) was 106 % of control, the T/C (dose: 200.0 mg/kg/injection, schedule: Q04DX003 (ip), vehicle: saline with Tween-80) was 99 % of control and the T/C (dose: 400.0 mg/kg/injection, schedule: Q04DX003 (ip), vehicle: saline with Tween-80) was 110 % of control.
`COc1ccc(OC)c(NC=O)c1` was tested, and the T/C [8] was 97 % of control and the T/C [7] was 97 % of control.
With `CCCCC#CC(=O)OC` the T/C [8] was 116 % of control, the T/C [6] was 104 % of control and the T/C [7] was 100 % of control. The T/C (dose: 200.0 mg/kg/injection, schedule: Q01DX009 (ip), vehicle: saline with Tween-80) was 114 % of control.
With `CCOC(=O)Nc1cc(NC(C)CCCN(CC)CC)c2ncc(-c3ccccc3)nc2n1` (stereo not drawn) (tested in a mixture with another compound) the T/C [2] was 100 % of control, the T/C (dose: 25.0 mg/kg/injection, schedule: Q04DX003 (ip), vehicle: saline) was 104 % of control and the T/C [3] was 100 % of control. For the same molecule, the T/C (dose: 50.0 mg/kg/injection, schedule: Q04DX003 (ip), vehicle: saline) was 100 % of control, the T/C [4] was 104 % of control and the T/C [5] was 104 % of control.
For `O=C(O)c1ccc(N=NSc2ncnc3nc[nH]c23)cc1O`, the T/C (dose: 1.3 mg/kg/injection, schedule: Q01DX009 (ip), vehicle: saline with Tween-80) was 115 % of control, the T/C (dose: 3.0 mg/kg/injection, schedule: Q01DX009 (ip), vehicle: saline with Tween-80) was 153 % of control and the T/C (dose: 4.0 mg/kg/injection, schedule: Q01DX009 (ip), vehicle: saline with Tween-80) was 150 % of control. The T/C (dose: 6.0 mg/kg/injection, schedule: Q01DX009 (ip), vehicle: saline with Tween-80) was 119 % of control and 123 % of control, the T/C (dose: 9.0 mg/kg/injection, schedule: Q01DX009 (ip), vehicle: saline with Tween-80) was 123 % of control and the T/C (dose: 12.0 mg/kg/injection, schedule: Q01DX009 (ip), vehicle: saline with Tween-80) was 96 % of control. For the same molecule, the T/C (dose: 14.5 mg/kg/injection, schedule: Q04DX003 (ip), vehicle: saline with Tween-80) was 122 % of control, the T/C (dose: 22.0 mg/kg/injection, schedule: Q04DX003 (ip), vehicle: saline with Tween-80) was 122 % of control and the T/C (dose: 25.0 mg/kg/injection, schedule: Q04DX003 (ip), vehicle: saline with Tween-80) was 161 % of control. The T/C (dose: 33.0 mg/kg/injection, schedule: Q04DX003 (ip), vehicle: saline with Tween-80) was 118 % of control and 119 % of control, the T/C (dose: 50.0 mg/kg/injection, schedule: Q04DX003 (ip), vehicle: saline with Tween-80) was 177 % of control and the T/C (dose: 75.0 mg/kg/injection, schedule: Q04DX003 (ip), vehicle: saline with Tween-80) was 119 % of control.
For `C[N+](C)(CCc1ccccc1)CC(O)COc1ccccc1` (stereo not drawn), the T/C (dose: 9.5 mg/kg/injection, schedule: Q01DX009 (ip), vehicle: Klucel (hydroxypropylcellulose) (HPC)) was 96 % of control, the T/C (dose: 9.5 mg/kg/injection, schedule: Q04DX003 (ip), vehicle: Klucel (hydroxypropylcellulose) (HPC)) was 95 % of control and the T/C (dose: 19.0 mg/kg/injection, schedule: Q01DX009 (ip), vehicle: Klucel (hydroxypropylcellulose) (HPC)) was 96 % of control. For the same molecule, the T/C (dose: 19.0 mg/kg/injection, schedule: Q04DX003 (ip), vehicle: Klucel (hydroxypropylcellulose) (HPC)) was 95 % of control and the T/C (dose: 38.0 mg/kg/injection, schedule: Q04DX003 (ip), vehicle: Klucel (hydroxypropylcellulose) (HPC)) was 100 % of control.
`O=C1C(c2ccccc2)=S=C2C=CC=CN12` was tested, and the T/C (dose: 12.5 mg/kg/injection, schedule: Q01DX001 (ip), vehicle: saline with Tween-80) was 109 % of control, the T/C (dose: 25.0 mg/kg/injection, schedule: Q01DX001 (ip), vehicle: saline with Tween-80) was 100 % of control and the T/C (dose: 50.0 mg/kg/injection, schedule: Q01DX001 (ip), vehicle: saline with Tween-80) was 87 % of control. For the same molecule, the T/C (dose: 100.0 mg/kg/injection, schedule: Q01DX001 (ip), vehicle: saline with Tween-80) was 100 % of control.
